Test results from patent publication EP2966448B1, “METHOD FOR THE PREDICTION OR PROGNOSIS OF THE RESPONSE OF A HUMAN SUBJECT SUFFERING FROM CANCER TO TREATMENT WITH AN ANTAGONIST OF THE NK1 RECEPTOR” (priority 2013, dated 2014).
Like-named read-outs stand apart in the source and are kept apart here.

Legend:
[1] = system: Breast carcinoma (ductal adenocarcinoma); experiment: Inhibition of primary tumor cell cultures vs Kras mutation (Example 2); format: cell-based, human; conditions: Homo sapiens, 100 micromolar, read-out: Percentage of inhibition of cell cultures
Experimental: (§1) Cell cultures. […] Briefly, small pieces of the tumors were digested into a hyaluronidase solution (Sigma-Aldrich, USA) at a concentration of 1 mg/ml during 15 minutes at 37°C, and then they were treated with 6 mg/ml of collagenase type IV (Invitrogen) during 2 hours at 37°C. Consecutively, cells were washed, and resuspended in the DMEM culture medium with high concentration of glucose (Dulbecco's Modified Eagle's Medium, Invitrogen) supplemented with 1% of antibiotics-antimycotics (Invitrogen) and with 1% of sodium pyruvate (Invitrogen), and the cells were seeded in culture slides at a concentration of 10.000 cells per square centimeter. When cells reached confluence, the adherent cells were separated using sterile trypsin at 0,5% (Invitrogen) and they were used among passages 3 and 9. For the assays shown next, tumor cells were seeded on slides at a concentration of 25.000 cells per well. A total of 6 wells containing the tumor cells were used as survival control. […] All the cultures were kept during 48 hours and later on recollected for their analysis.
(§2) In each case the presence or not of mutations in K-ras gene was determined.
(§3) To determine the existence of mutations in the K-ras gene DNA from cancer tumor cells was extracted from samples obtained from the different cancer tumor cells, using DNA extraction kits from Takara (Madison, WI, US) or Ambion (Huntingdon, Cambridgeshire, United Kingdom), following the manufacturer's instructions, and as it has been previously published (Di Fiore F, et al. 2007). Consecutively it was analyzed by sequencing the exon 2 of the KRAS gene, , by means of PCR amplification from previously extracted cancer tumor DNA, using the following sense primer (SEQ ID NO. 15): 5'-[sequence]-3' and anti-sense primer (SEQ ID NO. 16): 5'-[sequence]-3'. After the purification using the Qiagen extraction kit, the PCR products were sequenced using the Big Dye Terminator Kit V3.1 (Applied Biosystems, Foster City, CA, U.S.) and an ABI Prism 377 or 3100 DNA sequencer (Applied Biosystems). The presence of a heterozygous mutation in the KRAS gene in cancer tumor cells of the cultures was defined as the appearance of a mutant peak of a height of at least a third of the wild type. All the sequence analysis were executed at least twice in two independent PCR.
(§4) The antibody against NK1 receptor (Table 16) was used at 1/50 concentration. The percentages of inhibition are expressed in percentage of variation in relation to control ± standard deviation.

Hodgkin lymphoma = experiment: Inhibition of primary tumor cell cultures (48 hours) vs NK1 receptor immunostaining (Example 1); format: cell-based; conditions: Homo sapiens, 1 micromolar, read-out: Percentage of inhibition of cell cultures
Experimental: (§5) Cell cultures. To obtain tumor cells from human primary tumors we used the method described in De Bari et al. (De Bari et al. 2001). Briefly, small pieces of the tumors were digested into a hyaluronidase solution (Sigma-Aldrich, USA) at a concentration of 1 mg/ml during 15 minutes at 37°C, and then they were treated with 6 mg/ml of collagenase type IV (Invitrogen) during 2 hours at 37°C. Consecutively, cells were washed, and resuspended in the DMEM culture medium with high concentration of glucose (Dulbecco's Modified Eagle's Medium, Invitrogen) supplemented with 1% of antibiotics-antimycotics (Invitrogen) and with 1% of sodium pyruvate (Invitrogen), and the cells were seeded in culture slides at a concentration of 10.000 cells per square centimeter. When cells reached confluence, the adherent cells were separated using sterile trypsin at 0,5% (Invitrogen) and they were used among passages 3 and 9. For the assays shown next, tumor cells were seeded on slides at a concentration of 25.000 cells per well. A total of 6 wells containing the tumor cells were used as survival control. […] All the cultures were kept during 48 hours and later on recollected for their analysis.
(§6) Immunohistochemistry techniques. The presence of NK1 receptors was also analyzed using immunohistochemistry techniques. Briefly, a sample of each of the cultures of the cell lines used in the present invention, was centrifuged (5 minutes at 1.500 rpm) and the pellet obtained was dehydrated using increasing concentrations of ethanol and, finally, xylol. Then, said dehydrated samples were embedded in paraffin, creating a block of cells. Such paraffin blocks were cut with a microtome at 5 microns thickness, and were placed on microscope slides adequate to perform immunohistochemistry techniques. Consecutively, they were de-paraffinized by immersing them in xylol, to be finally hydrated using a solution containing decreasing concentrations of ethanol, and finally submerged them into water. […] After this, the samples were left to cool down at room temperature for 10 minutes. The endogenous peroxidase activity was blocked with 3% peroxide of hydrogen for 30 minutes at room temperature. After washing the samples with 0.05 M of Tris buffer, they were incubated with 10% non-immune pork serum at for 30 minutes at room temperature. To analyze the expression of NK1 receptors, the cellular samples were incubated in the presence of anti-NK1 antibodies (S8305, Sigma-Aldrich) diluted 1:1000, overnight at 4°C. Afterwards, the samples were washed in Tris buffer 0.05 M at room temperature. The next step was the addition of Envision System-HRP (Dako) reagents for 30 minutes at room temperature. Then, the samples were washed again in Tris buffer 0.05 M and the immunoreactivity was visualized through light microscopy with a chromogenic solution containing 3,3'-Diaminobenzidine (DAB+; Dako, USA). To differentiate the cell nuclei, they were slightly stained with hematoxylin. As negative control, it was used samples not incubated with the primary antibody anti-NK1, which was replaced by non-immune serum. All the samples were evaluated.
(§7) To value the immunostaining in each of the cases six cuts were performed to be analyzed by the immunohistochemistry technique. In each of the six cuts, it was counted cells in 20 fields (magnification 400x) using an Olympus microscope (model CX31). In each field it was counted the total number of cells and the number of cells presenting immunostaining, calculating afterwards the percentage of cells which presented immunostaining.

Neuroblastoma = experiment: as above; format: cell-based; conditions: Homo sapiens, 1 micromolar, read-out: Percentage of inhibition of cell cultures
Experimental: as §5, §6, §7

Gastric carcinoma = experiment: as above; format: cell-based; conditions: Homo sapiens, 1 micromolar, read-out: Percentage of inhibition of cell cultures
Experimental: as §5, §6, §7

[2] = system: Lung carcinoma (non small cell lung carcinoma); experiment: Inhibition of primary tumor cell cultures vs Kras mutation (Example 2); format: cell-based, human; conditions: Homo sapiens, 100 micromolar, read-out: Percentage of inhibition of cell cultures
Experimental: (§8) To obtain tumor cells from human primary tumors we used the method described in De Bari et al. (De Bari et al. 2001). Briefly, small pieces of the tumors were digested into a hyaluronidase solution (Sigma-Aldrich, USA) at a concentration of 1 mg/ml during 15 minutes at 37°C, and then they were treated with 6 mg/ml of collagenase type IV (Invitrogen) during 2 hours at 37°C. Consecutively, cells were washed, and resuspended in the DMEM culture medium with high concentration of glucose (Dulbecco's Modified Eagle's Medium, Invitrogen) supplemented with 1% of antibiotics-antimycotics (Invitrogen) and with 1% of sodium pyruvate (Invitrogen), and the cells were seeded in culture slides at a concentration of 10.000 cells per square centimeter. When cells reached confluence, the adherent cells were separated using sterile trypsin at 0,5% (Invitrogen) and they were used among passages 3 and 9. For the assays shown next, tumor cells were seeded on slides at a concentration of 25.000 cells per well. A total of 6 wells containing the tumor cells were used as survival control. […] All the cultures were kept during 48 hours and later on recollected for their analysis.
as §2, §3, §4

[3] = system: Thyroid carcinoma (papillary carcinoma); experiment: as above; format: cell-based, human; conditions: Homo sapiens, 100 micromolar, read-out: Percentage of inhibition of cell cultures
Experimental: as §8, §2, §3, §4

[4] = system: Ovarian carcinoma (Adenocarcinoma); experiment: as above; format: cell-based, human; conditions: Homo sapiens, 100 micromolar, read-out: Percentage of inhibition of cell cultures
Experimental: as §1, §2, §3, §4

[5] = system: Gastric carcinoma (Adenocarcinoma); experiment: as above; format: cell-based, human; conditions: Homo sapiens, 100 micromolar, read-out: Percentage of inhibition of cell cultures
Experimental: as §1, §2, §3, §4

Colon carcinoma = experiment: Inhibition of primary tumor cell cultures (48 hours) vs NK1 receptor immunostaining (Example 1); format: cell-based; conditions: Homo sapiens, 1 micromolar, read-out: Percentage of inhibition of cell cultures
Experimental: as §5, §6, §7

[6] = system: Thyroid carcinoma (papillary type); experiment: as above; format: cell-based; conditions: Homo sapiens, 1 micromolar, read-out: Percentage of inhibition of cell cultures
Experimental: as §5, §6, §7

Leukemia B = experiment: as above; format: cell-based; conditions: Homo sapiens, 1 micromolar, read-out: Percentage of inhibition of cell cultures
Experimental: as §5, §6, §7

Fibrosarcoma = experiment: as above; format: cell-based; conditions: Homo sapiens, 1 micromolar, read-out: Percentage of inhibition of cell cultures
Experimental: as §5, §6, §7

[7] = system: Urinary bladder carcinoma (transitional cell carcinoma); experiment: Inhibition of primary tumor cell cultures vs Kras mutation (Example 2); format: cell-based, human; conditions: Homo sapiens, 100 micromolar, read-out: Percentage of inhibition of cell cultures
Experimental: as §8, §2, §3, §4

Renal cell carcinoma = experiment: Inhibition of primary tumor cell cultures (48 hours) vs NK1 receptor immunostaining (Example 1); format: cell-based; conditions: Homo sapiens, 1 micromolar, read-out: Percentage of inhibition of cell cultures
Experimental: as §5, §6, §7

[8] = system: Lung carcinoma (small cell type); experiment: as above; format: cell-based; conditions: Homo sapiens, 1 micromolar, read-out: Percentage of inhibition of cell cultures
Experimental: as §5, §6, §7

[9] = system: human primary tumor cells; experiment: Inhibition of primary tumor cell cultures vs amplification of the gene encoding the NK1 receptor (Example 6; tumor type per table line); format: cell-based; conditions: 100 micromolar
Experimental: as §1
The presence or absence of the amplification of the gene encoding for the NK1 receptor was determined, and then the cells were cultured in the presence of several antagonists of the NK1 receptor.
For each case, the presence or absence of amplification of the gene encoding for the NK1 receptor was determined.
In order to determine the presence of the amplification (increase in the number of copies) of the gene encoding the NK1 receptor (TAC1R), it was used the comparative genomic hybridization technique (CGH Array). Firstly genomic DNA was extracted from each case. Later, it was performed the marking and hybridization of the DNA of each sample together with DNA of a commercial reference without genomic alterations (from masculine or feminine sex, depending on the gender of the patient from whom the samples were obtained). The Array is Sureprint G3 Human CGH Microarray from the company Agilent was used, with an average separation between probes of 5.3Kb and 4.6Kb for the genes RefSeq. The reading of the microarray was done with the DNA Microarray Scanner G2565CA from Agilent, at a resolution of 3 µm. The analysis of the results was performed with the software Cytogenomics v 2.0.6.0 from Agilent with ADM-2: 6.0; Centralization: ON (Threshold: 6.0, Bin size: 10); Fuzzy zero: ON; Aberration filters: ON (minProbes=5 and minAvgAbsLopRatio= 0,5); Feature Level Filters : ON. The genomic coordinates are coincident with the NCBI36genome (hg18). Cases were distributed in two groups: Group I for those cases without the amplification of the gene encoding the NK1 receptor (locus 2p13.1-p12), and Group II for those cases with amplification of the gene encoding the NK1receptor (locus 2p13.1-p12).
The antibody against NK1 receptor (Table 36) was used at 1/50 concentration. The percentages of inhibition are expressed in percentages of variation in relation to control ± standard deviation.

[10] = Cases with Kras non-mutated (wild type)
[11] = NK1 receptor immunostaining Group 1 (less than 20% of the cells)
[12] = NK1 receptor immunostaining Group 2 (20-80% of the cells)
[13] = NK1 receptor immunostaining Group 3 (more than 80% of the cells)
[14] = NK1 receptor immunostaining Intensity grade 1
[15] = NK1 receptor immunostaining Intensity grade 2
[16] = NK1 receptor immunostaining Intensity grade 3

CC(=O)N1CCN([C@H]2CCN(C(=O)N(C)[C@H](C)c3cc(C(F)(F)F)cc(C(F)(F)F)c3)[C@@H](c3ccc(F)cc3C)C2)CC1 [Casopitant]
inhibition at 100 µM ([1]; Cases with Kras mutated): 28 ± 6%
inhibition at 100 µM [1, 10]: 96 ± 4%
inhibition at 1 µM (Hodgkin lymphoma; [11]): 15 ± 2%
inhibition at 1 µM (Hodgkin lymphoma; [12]): 47 ± 4%
inhibition at 1 µM (Hodgkin lymphoma; [13]): 95 ± 4%
inhibition at 1 µM (Hodgkin lymphoma; [14]): 34 ± 5%
inhibition at 1 µM (Hodgkin lymphoma; [15]): 54 ± 4%
inhibition at 1 µM (Hodgkin lymphoma; [16]): 92 ± 4%
inhibition at 1 µM (Neuroblastoma; [11]): 16 ± 2%
inhibition at 1 µM (Neuroblastoma; [12]): 45 ± 4%
inhibition at 1 µM (Neuroblastoma; [13]): 94 ± 4%
inhibition at 1 µM (Neuroblastoma; [14]): 35 ± 4%
inhibition at 1 µM (Neuroblastoma; [15]): 55 ± 5%
inhibition at 1 µM (Neuroblastoma; [16]): 94 ± 4%
inhibition at 1 µM (Gastric carcinoma; [11]): 12 ± 4%
inhibition at 1 µM (Gastric carcinoma; [12]): 46 ± 2%
inhibition at 1 µM (Gastric carcinoma; [13]): 90 ± 2%
inhibition at 1 µM (Gastric carcinoma; [14]): 31 ± 3%
inhibition at 1 µM (Gastric carcinoma; [15]): 53 ± 3%
inhibition at 1 µM (Gastric carcinoma; [16]): 91 ± 3%
inhibition at 100 µM ([2]; Cases with Kras mutated): 25 ± 5%
inhibition at 100 µM [2, 10]: 95 ± 5%
inhibition at 100 µM ([3]; Cases with Kras mutated): 24 ± 5%
inhibition at 100 µM [3, 10]: 94 ± 5%
inhibition at 100 µM ([4]; Cases with Kras mutated): 29 ± 4%
inhibition at 100 µM [4, 10]: 97 ± 6%
inhibition at 100 µM ([5]; Cases with Kras mutated): 25 ± 5%
inhibition at 100 µM [5, 10]: 95 ± 5%
inhibition at 1 µM (Colon carcinoma; [11]): 13 ± 3%
inhibition at 1 µM (Colon carcinoma; [12]): 46 ± 3%
inhibition at 1 µM (Colon carcinoma; [13]): 92 ± 3%
inhibition at 1 µM (Colon carcinoma; [14]): 32 ± 4%
inhibition at 1 µM (Colon carcinoma; [15]): 54 ± 4%
inhibition at 1 µM (Colon carcinoma; [16]): 92 ± 2%
inhibition at 1 µM [6, 11]: 16 ± 2%
inhibition at 1 µM [6, 12]: 44 ± 2%
inhibition at 1 µM [6, 13]: 95 ± 5%
inhibition at 1 µM [6, 14]: 35 ± 4%
inhibition at 1 µM [6, 15]: 55 ± 6%
inhibition at 1 µM [6, 16]: 92 ± 3%
inhibition at 1 µM (Leukemia B; [11]): 17 ± 3%
inhibition at 1 µM (Leukemia B; [12]): 46 ± 5%
inhibition at 1 µM (Leukemia B; [13]): 94 ± 6%
inhibition at 1 µM (Leukemia B; [14]): 36 ± 3%
inhibition at 1 µM (Leukemia B; [15]): 52 ± 3%
inhibition at 1 µM (Leukemia B; [16]): 92 ± 5%
inhibition at 1 µM (Fibrosarcoma; [11]): 15 ± 2%
inhibition at 1 µM (Fibrosarcoma; [12]): 47 ± 5%
inhibition at 1 µM (Fibrosarcoma; [13]): 93 ± 4%
inhibition at 1 µM (Fibrosarcoma; [14]): 35 ± 6%
inhibition at 1 µM (Fibrosarcoma; [15]): 55 ± 3%
inhibition at 1 µM (Fibrosarcoma; [16]): 92 ± 4%
inhibition at 100 µM ([7]; Cases with Kras mutated): 25 ± 4%
inhibition at 100 µM [7, 10]: 95 ± 6%
inhibition at 1 µM (Renal cell carcinoma; [11]): 16 ± 4%
inhibition at 1 µM (Renal cell carcinoma; [12]): 46 ± 3%
inhibition at 1 µM (Renal cell carcinoma; [13]): 91 ± 5%
inhibition at 1 µM (Renal cell carcinoma; [14]): 34 ± 2%
inhibition at 1 µM (Renal cell carcinoma; [15]): 55 ± 5%
inhibition at 1 µM (Renal cell carcinoma; [16]): 91 ± 4%
inhibition at 1 µM [8, 11]: 12 ± 2%
inhibition at 1 µM [8, 12]: 45 ± 2%
inhibition at 1 µM [8, 13]: 93 ± 4%
inhibition at 1 µM [8, 14]: 33 ± 2%
inhibition at 1 µM [8, 15]: 55 ± 3%
inhibition at 1 µM [8, 16]: 94 ± 4%
Percentage of inhibition of cell cultures ([9]; Breast carcinoma (ductal adenocarcinoma), Cases with amplification of the gene that encodes for the NK1 receptor): 94±7 percentage
Percentage of inhibition of cell cultures ([9]; Breast carcinoma (ductal adenocarcinoma), Cases without amplification of the gene that encodes for the NK1 receptor): 23±8 percentage
Percentage of inhibition of cell cultures ([9]; Burkitt Lymphoma, Cases with amplification of the gene that encodes for the NK1 receptor): 93±6 percentage
Percentage of inhibition of cell cultures ([9]; Burkitt Lymphoma, Cases without amplification of the gene that encodes for the NK1 receptor): 24±5 percentage
